Converted amounts (≈) assume the structure as drawn.
Legend:
[1] = Intrinsic clearance in human liver microsomes assessed per mg protein in presence of NADPH by UPLC analysis; assay type: ADME, Microsome; conditions: read-out: CLH
[2] = Intrinsic clearance in mouse liver microsomes assessed per mg protein in presence of NADPH by UPLC analysis; assay type: ADME, Microsome; conditions: read-out: CLH
[3] = biological target: T1, Poly [ADP-ribose] polymerase tankyrase-1 (Homo sapiens, UniProt O95271); design: species or system Sf9
T1 sequence (O95271 whole entry): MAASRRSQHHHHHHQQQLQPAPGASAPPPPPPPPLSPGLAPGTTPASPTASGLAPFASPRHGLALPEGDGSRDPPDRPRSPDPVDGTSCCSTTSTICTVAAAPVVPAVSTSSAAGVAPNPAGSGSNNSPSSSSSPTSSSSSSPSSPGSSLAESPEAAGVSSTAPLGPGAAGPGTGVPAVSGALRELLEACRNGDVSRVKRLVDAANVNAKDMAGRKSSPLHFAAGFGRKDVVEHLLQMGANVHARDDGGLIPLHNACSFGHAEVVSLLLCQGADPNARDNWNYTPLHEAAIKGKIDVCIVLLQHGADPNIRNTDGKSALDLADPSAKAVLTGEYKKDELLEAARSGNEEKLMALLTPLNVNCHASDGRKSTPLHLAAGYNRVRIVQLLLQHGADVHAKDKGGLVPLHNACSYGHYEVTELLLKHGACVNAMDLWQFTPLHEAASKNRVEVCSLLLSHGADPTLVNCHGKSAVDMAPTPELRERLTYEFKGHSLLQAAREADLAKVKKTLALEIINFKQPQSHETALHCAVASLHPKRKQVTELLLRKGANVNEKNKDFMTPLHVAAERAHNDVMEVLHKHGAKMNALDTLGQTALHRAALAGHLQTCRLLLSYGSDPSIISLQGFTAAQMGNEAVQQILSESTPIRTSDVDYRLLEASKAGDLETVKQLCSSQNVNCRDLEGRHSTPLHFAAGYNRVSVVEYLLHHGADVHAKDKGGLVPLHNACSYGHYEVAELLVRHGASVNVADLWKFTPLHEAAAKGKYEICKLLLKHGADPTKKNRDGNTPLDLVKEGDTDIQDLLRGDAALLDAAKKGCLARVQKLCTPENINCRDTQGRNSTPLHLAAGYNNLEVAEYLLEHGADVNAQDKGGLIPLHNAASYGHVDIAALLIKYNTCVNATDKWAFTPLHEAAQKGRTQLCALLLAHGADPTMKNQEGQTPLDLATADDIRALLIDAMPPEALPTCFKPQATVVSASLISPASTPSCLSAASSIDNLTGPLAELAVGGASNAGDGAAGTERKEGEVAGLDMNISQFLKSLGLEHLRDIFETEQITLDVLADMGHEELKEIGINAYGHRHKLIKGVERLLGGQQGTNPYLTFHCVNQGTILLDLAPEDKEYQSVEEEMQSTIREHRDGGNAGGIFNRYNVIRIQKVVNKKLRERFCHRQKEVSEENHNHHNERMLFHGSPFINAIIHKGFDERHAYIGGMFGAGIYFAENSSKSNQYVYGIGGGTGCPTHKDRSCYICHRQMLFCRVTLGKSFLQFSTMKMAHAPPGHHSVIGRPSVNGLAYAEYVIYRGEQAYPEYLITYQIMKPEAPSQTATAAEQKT

[4] = Thermodynamic solubility in phosphate buffer at pH 7.4 at 2 mg incubated under shaking condition for 6 hrs followed by rechecking and readjusting pH to 7.4 and further incubated for 18 hrs by HPLC/UV detection method; assay type: physicochemical; conditions: read-out: Therm_solubility
[5] = biological target: Poly [ADP-ribose] polymerase 1 (Homo sapiens, UniProt P09874); experiment: Inhibition of recombinant human full-length Myc/His-tagged Parp-1 expressed in baculovirus infected Sf21 insect cells assessed as reduction in auto-PARsylation using activated DNA as substrate incubated for 150 mins in presence of NAD and bio-NAD as co-substrate by TR-FRET assay
[6] = biological target: T2, Poly [ADP-ribose] polymerase tankyrase-2 (Homo sapiens, UniProt Q9H2K2); experiment: biochemical
T2 sequence (Q9H2K2 whole entry): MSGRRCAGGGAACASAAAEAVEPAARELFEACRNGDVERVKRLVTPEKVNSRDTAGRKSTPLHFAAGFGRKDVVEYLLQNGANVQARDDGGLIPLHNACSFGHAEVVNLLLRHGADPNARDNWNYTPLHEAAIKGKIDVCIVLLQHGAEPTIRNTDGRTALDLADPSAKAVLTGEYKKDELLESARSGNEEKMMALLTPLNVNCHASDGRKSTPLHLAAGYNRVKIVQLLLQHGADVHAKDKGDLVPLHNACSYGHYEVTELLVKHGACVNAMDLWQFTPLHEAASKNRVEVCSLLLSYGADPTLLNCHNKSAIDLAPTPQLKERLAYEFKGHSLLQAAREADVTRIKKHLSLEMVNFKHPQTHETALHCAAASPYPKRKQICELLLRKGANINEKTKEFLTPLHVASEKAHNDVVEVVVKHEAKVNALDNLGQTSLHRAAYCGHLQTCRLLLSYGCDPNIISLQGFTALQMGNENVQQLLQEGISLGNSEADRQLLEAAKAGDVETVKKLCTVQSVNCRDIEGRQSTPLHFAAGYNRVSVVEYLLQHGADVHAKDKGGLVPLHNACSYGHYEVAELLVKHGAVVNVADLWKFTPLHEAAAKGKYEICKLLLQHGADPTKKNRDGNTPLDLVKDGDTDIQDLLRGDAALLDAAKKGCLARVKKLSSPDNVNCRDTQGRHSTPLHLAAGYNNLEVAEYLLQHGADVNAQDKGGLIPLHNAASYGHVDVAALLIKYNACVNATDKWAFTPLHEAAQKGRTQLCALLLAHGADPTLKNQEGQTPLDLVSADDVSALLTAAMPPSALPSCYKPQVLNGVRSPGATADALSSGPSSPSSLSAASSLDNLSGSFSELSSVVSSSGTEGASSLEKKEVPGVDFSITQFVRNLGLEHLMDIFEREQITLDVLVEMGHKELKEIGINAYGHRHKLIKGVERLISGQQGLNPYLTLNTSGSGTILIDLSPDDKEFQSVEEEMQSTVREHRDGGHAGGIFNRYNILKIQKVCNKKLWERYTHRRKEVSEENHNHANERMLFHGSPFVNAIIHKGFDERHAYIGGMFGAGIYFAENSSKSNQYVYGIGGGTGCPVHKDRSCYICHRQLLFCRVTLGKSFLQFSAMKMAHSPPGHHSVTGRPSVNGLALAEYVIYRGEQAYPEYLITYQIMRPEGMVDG
Description: Inhibition of GST tagged-TEV cleavage site-fused human recombinant TNKS2 (873 to 1166 residues) expressed in baculovirus infected sf9 cells assessed as reduction in auto-PARsylation incubated for 60 mins in presence of bio-NAD as co-substrate by ELISA

Tankyrase 1/2 = biological target: T3, Tankyrase 1/2 (Homo sapiens, UniProt Q9H2K2+O95271)
T3 sequence (Q9H2K2 whole entry): T2 sequence (Q9H2K2 whole entry)
T3 sequence (O95271 whole entry): T1 sequence (O95271 whole entry)
Description: Inhibition of tankyrase 1/2 in human DLD1 cells assessed as increase in axin2 accumulation incubated for 24 hrs by luminex based bead assay

Chain of Poly [ADP-ribose] polymerase 1 (P09874 whole entry): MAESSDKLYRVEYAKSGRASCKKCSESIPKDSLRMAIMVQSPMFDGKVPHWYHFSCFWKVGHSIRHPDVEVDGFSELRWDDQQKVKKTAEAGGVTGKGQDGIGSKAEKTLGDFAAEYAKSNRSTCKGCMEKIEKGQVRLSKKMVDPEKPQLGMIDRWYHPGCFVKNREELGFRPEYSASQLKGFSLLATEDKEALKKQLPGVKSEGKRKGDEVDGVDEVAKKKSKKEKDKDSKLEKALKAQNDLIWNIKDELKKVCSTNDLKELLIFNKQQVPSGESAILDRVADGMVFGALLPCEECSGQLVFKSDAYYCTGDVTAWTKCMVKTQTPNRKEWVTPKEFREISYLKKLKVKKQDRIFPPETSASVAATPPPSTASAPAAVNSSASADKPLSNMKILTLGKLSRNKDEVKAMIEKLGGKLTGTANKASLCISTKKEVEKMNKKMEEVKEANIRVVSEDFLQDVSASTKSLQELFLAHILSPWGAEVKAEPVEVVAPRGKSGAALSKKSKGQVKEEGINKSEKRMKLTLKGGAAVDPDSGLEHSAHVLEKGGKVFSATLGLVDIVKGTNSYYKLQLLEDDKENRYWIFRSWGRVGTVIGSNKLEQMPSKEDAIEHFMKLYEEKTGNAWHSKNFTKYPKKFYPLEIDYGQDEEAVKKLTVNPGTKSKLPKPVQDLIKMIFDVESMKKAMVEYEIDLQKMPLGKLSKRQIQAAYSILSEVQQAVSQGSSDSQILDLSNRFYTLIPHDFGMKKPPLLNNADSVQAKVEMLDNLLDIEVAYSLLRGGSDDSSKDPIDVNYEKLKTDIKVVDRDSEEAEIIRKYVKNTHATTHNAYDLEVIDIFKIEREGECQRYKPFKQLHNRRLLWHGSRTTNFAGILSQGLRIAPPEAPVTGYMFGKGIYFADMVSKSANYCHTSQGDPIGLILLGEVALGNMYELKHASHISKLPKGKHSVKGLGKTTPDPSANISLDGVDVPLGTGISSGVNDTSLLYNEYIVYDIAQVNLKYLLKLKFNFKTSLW

Row | SMILES | microsomal CLint [1] [µL/min/mg] | microsomal CLint [2] [µL/min/mg] | IC50 [3] [µM] | solubility thermodynamic at 24 h [4] [µg/mL] | IC50 [5] [µM] | IC50 [6] [µM] | EC50 (Tankyrase 1/2) [µM]
1 | Cl.O=c1[nH]c(-c2ccc(C3CCNCC3)cc2)nc2c(F)cc(F)cc12 | < 10 | < 10 | 0.015 | 57 | – | – | –
2 | Cc1cccc2c(=O)[nH]c(-c3ccc(C(C)(C)O)cc3)nc12 | < 10 | 81 | 0.0012 | 4 (≈ 13.6 µM) | 0.079 | – | –
3 | CC(C)(O)c1ccc(-c2nc3c(Cl)cccc3c(=O)[nH]2)cc1 | 23 | 49 | 0.011 | – | 0.41 | – | –
4 | Cc1cc(F)cc2c(=O)[nH]c(-c3ccc(N4CCN(C)CC4)cc3)nc12 | 14 | 138 | 0.0015 | 4 (≈ 11.4 µM) | 0.12 | – | –
5 | CC(C)(O)c1ccc(-c2nc3ccc(F)cc3c(=O)[nH]2)nc1 | 15 | < 10 | 1 | – | 2.5 | – | –
6 | CC(C)(OCCO)c1ccc(-c2nc3ccc(F)cc3c(=O)[nH]2)cc1 | < 10 | 32 | 0.01 | 23 (≈ 67.2 µM) | 2.3 | – | –
7 | CC(C)(O)c1ccc(-c2nc3c(F)ccc(F)c3c(=O)[nH]2)cc1 | < 10 | < 10 | 0.026 | 5 (≈ 15.8 µM) | 1.3 | – | –
8 | CC(C)(O)c1ccc(-c2nc3ccccc3c(=O)[nH]2)cc1 | 15 | 46 | 0.015 | 38 (≈ 136 µM) | 0.91 | 0.013 | 1.3
9 | CC(C)(O)c1ccc(-c2nc3cccc(Cl)c3c(=O)[nH]2)cc1 | – | – | 0.035 | – | 4.3 | – | –
10 | CC(C)(O)c1ccc(-c2nc3c(F)cccc3c(=O)[nH]2)cc1 | < 10 | 26 | 0.014 | 15 (≈ 50.3 µM) | 1.1 | – | –
11 | Cc1cc(F)cc2c(=O)[nH]c(-c3ccc(C4CCN(C)CC4)cc3)nc12 | < 10 | 422 | 0.0022 | 5 (≈ 14.2 µM) | 0.62 | 0.0022 | 0.05
12 | CC(C)(O)c1ccc(-c2nc3ccc(F)c(F)c3c(=O)[nH]2)cc1 | < 10 | 23 | 0.007 | 25 (≈ 79 µM) | 0.512 | – | –
13 | CC(C)(O)c1ccc(-c2nc3ccc(Cl)cc3c(=O)[nH]2)cc1 | – | – | 0.023 | – | 1.4 | – | –
14 | CN1CCN(c2ccc(-c3nc4ccc(F)cc4c(=O)[nH]3)cc2)CC1 | < 10 | 44 | 0.012 | 6 (≈ 17.7 µM) | 0.37 | – | –
15 | CC(C)(O)c1ccc(-c2nc3ccc(F)cc3c(=O)[nH]2)cc1 | < 10 | 25 | 0.0125 | 29 (≈ 97.2 µM) | 0.349 | – | –
16 | COCCOC(C)(C)c1ccc(-c2nc3ccc(F)cc3c(=O)[nH]2)cc1 | 41 | 126 | 0.024 | 6 (≈ 16.8 µM) | 5.7 | – | –
17 | CC(C)(O)c1ccc(-c2nc3cccc(F)c3c(=O)[nH]2)cc1 | < 10 | 11 | 0.017 | 20 (≈ 67 µM) | 0.83 | – | –
18 | Cc1cc(F)cc2c(=O)[nH]c(-c3ccc(C(C)(C)OCCO)cc3)nc12 | 37 | 180 | 0.0016 | – | 0.79 | – | –
19 | CC(C)(C)c1ccc(-c2nc3ccc(F)cc3c(=O)[nH]2)cc1 | 70 | > 1000 | 0.0033 | < 1 | 3.9 | – | –
20 | Cc1cc(F)cc2c(=O)[nH]c(-c3ccc(C(C)(C)O)cc3)nc12 | < 10 | 180 | 0.0008 | 1 (≈ 3.2 µM) | 0.06 | – | –
21 | COc1ccc(-c2nc3ccccc3c(=O)[nH]2)cc1 | 217 | 630 | – | 4 (≈ 15.9 µM) | – | – | –
22 | COc1cccc2c(=O)[nH]c(-c3ccc(C(C)(C)O)cc3)nc12 | 12 | 45 | 0.035 | 153 (≈ 493 µM) | 0.63 | – | –
